Assay [1] can be described thus: Free radical scavenging activity on ABTS radical cation (absorbance at 730nm). Format: biochemical. The protocol:
This method measures the relative ability of free radical scavenging substances to scavenge the ABTS ^.+ i.e. 2,2-Azino-bis-(3-ethyl benzo thiazoline-6-sulfonate) radical cation as compared to a standard amount of standard or free radical scavengers antioxidants. Incubation of ABTS with Peroxidase (metmyoglobin) and hydrogen peroxide results in the production of radical cation ABTS^.+ . This species is blue- green in colour and can be detected at 730nm. Antioxidants or free radical scavengers in the added sample that causes suppression of the color to a degree that is proportional to their concentration.
• A. Phosphate Citrate Buffer (pH 5.0): 48.5ml of 0.1M citric acid with sufficient 0.2M disodium hydrogen phosphate to produce 100 ml. • B. Phosphate Buffer Saline (PBS): Dissolve 40.0g of NaCl, 1.0g of KCI, 1.0g of KH2PO4 and 3.05g of Na2HPO4 in 1 litre milli-Q water. Dilute 200ml of above solution to 1 litre with milli-Q water (pH 7.4-7.6). • C. 3µM stock solution of Peroxidase was prepared in phosphate buffer saline pH 7.4(PBS). • D. 1.08 mM stock solution of Hydrogen peroxide was prepared in phosphate buffer saline pH 7.4 (PBS).
1 tablet (10mg) was dissolved in phosphate citrate buffer (pH 5.0).
5.0ml of ABTS stock solution was diluted with PBS to 20 ml.
320 µg of the enzyme was dissolved in 2.5 ml of PBS.
12µl of Hydrogen Peroxide (30%w/v) was diluted to 100ml with PBS.
0.1mM of stock solution of the drug was prepared which was serially diluted in PBS to get solutions of different concentrations.
To 18ml of ABTS stock solution, 100µl of Horseradish Peroxidase stock solution was added.
As soon as 1.5 ml of hydrogen peroxide solution was added to the above solution, blue-green colour of the ABTS radicals appeared. This solution was incubated at 30°C for 30 min.
980µl of ABTS radical stock solution was added to an eppendorf tube. To it was added 100µl of various PBS solution.
980µl of ABTS radical stock solutions were added to different eppendorf tubes. To it were added 100µl of various concentrations of drug solution.
The absorbance of control and test samples was recorded immediately at 730nm taking PBS as blank.
Calculation: The percent antioxidant activity was calculated according to the formula: % Antioxidant activity = [O.D of test sample/O.D of control*100]-100.

Another assay concerns the target T1, AGE-BSA (Bos taurus, UniProt P02769).
T1 construct: Bovine serum albumin (fraction V) (BSA); from tissue
Briefly: In-vitro AGE breaking activity by ELISA (16 weeks AGE-BSA incubated with test compound). Format: biochemical, bovine. Conditions: for % Breakage: 37°C, 24 hours.

Where [2] appears, read: comparison in words based on Table 2.

Molecules are shown by their SMILES.

T1 sequence (P02769 25-607): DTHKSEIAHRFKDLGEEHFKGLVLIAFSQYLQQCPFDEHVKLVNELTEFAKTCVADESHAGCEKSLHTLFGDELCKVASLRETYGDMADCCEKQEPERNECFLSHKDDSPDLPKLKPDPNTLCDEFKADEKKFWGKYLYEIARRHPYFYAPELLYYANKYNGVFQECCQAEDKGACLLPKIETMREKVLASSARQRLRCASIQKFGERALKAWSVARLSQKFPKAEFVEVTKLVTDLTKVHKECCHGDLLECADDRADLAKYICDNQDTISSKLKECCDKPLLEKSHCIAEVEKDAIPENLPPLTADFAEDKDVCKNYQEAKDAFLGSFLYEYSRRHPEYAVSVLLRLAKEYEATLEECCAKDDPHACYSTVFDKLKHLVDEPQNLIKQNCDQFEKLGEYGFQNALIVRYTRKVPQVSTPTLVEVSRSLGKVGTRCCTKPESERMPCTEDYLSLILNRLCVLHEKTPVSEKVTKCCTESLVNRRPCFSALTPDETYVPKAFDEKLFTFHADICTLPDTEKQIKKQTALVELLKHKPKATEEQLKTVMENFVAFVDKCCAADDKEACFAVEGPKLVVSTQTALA
Method for AGE-BSA: AGE breaking activity has been confirmed by the screening procedure as mentioned below: • Materials: • Bovine serum albumin (fraction V) (BSA) • Glucose, analytical grade • Phosphate buffered saline (PBS) • Equipment: • Microplate ELISA Reader - Spectramax Plus (Molecular Devices, USA) • Microplate washer, (Bio -Tec Instruments, USA) • pH meter • Methods of experiment: Elisa (Enzyme Linked Immunosorbent Assay) 160 mg/ml of protein, bovine serum albumin, BSA and 1.6M glucose sugar were dissolved in phosphate buffered saline, PBS. Sodium azide was added at 0.02% concentration as a preservative. The solution was filtered asceptically through a 0.22 µM filter and kept for aging at 37°C for 16 weeks. After 16 weeks the solution was dialyzed against PBS, aliquoted and stored at - 20°C.
To determine the AGE breaking activity, 10 µg/ml of the 16 weeks AGE-BSA was incubated with different concentrations of the test compounds at 37°C for 24 hours and AGE breaking activity of the test compounds by ELISA was determined.
Different concentrations of 16 weeks AGE-BSA were coated on a microtitre plate as standard. Each concentration is coated in triplicates. • 2. The test samples were coated on microtitre plate at a concentration of 5 ng. to 20 ng per well in triplicates. • 3. The plate was incubated at 37°C for one hour. • 4. After incubation the plate was washed with PBST (PBS with 0.05% Tween 20). • 5. Blocking with 5% skimmed milk in PBS at 37°C for one hour was done. • 6. The plate was washed with PBST. • 7. Primary antibody against AGE-BSA was added and the plate is incubated at 37°C for one hour. • 8. The plate was washed with PBST • 9. Secondary antibody anti rabbit HRPO (Horse-Radish Per Oxidase) conjugate was added and the plate is incubated at 37°C for one hour. • 10. The plate was washed with PBST. • 11. Colour development with OPD (orthophenylenediamine dihydrochloride) and hydrogen peroxide was done. • 12. OD (optical density) at (450nm reading - 620nm reading) was measured after incubation at 37°C for 15 minutes with Microplate ELISA Reader.
The breaker activity of the compounds were determined by the following formula: % Breaker activity =(OD450-620 Control - OD450-620 Test)/(OD450-620 Control)x 100 [formula] OD450-620Control= Absorbance of 20ng AGE-BSA after incubation at 37°C for 24 hours without test compound OD450-620Test= Absorbance of 20ng AGE-BSA after incubation at 37°C for 24 hours with required concentration of test compound

`NC(=O)c1cccnc1` [Niacinamide, reference compound]: the “Relative Free Radical Scavenging Activity(%) on ABTS” value was found to be 0.0% in assay [1] (11.5µM); 2.2% in assay [1] (23.0µM); 3.8% in assay [1] (46.0µM); 3.8% in assay [1] (92.5µM); 9.2% in assay [1] (925µM).
For the compound `O=C(C[n+]1cccc(C(=O)c2ccccc2)c1)c1ccccc1.[Br-]` [Compound 98, 1-(2-Phenyl-2-oxoethyl)-3-(1-phenyl-1-oxomethyl) pyridinium bromide], the “Relative Free Radical Scavenging Activity(%) on ABTS” value was determined as 7.1% in assay [1] (11.5µM); 26.9% in assay [1] (23.0µM); 51.1% in assay [1] (46.0µM); 78.6% in assay [1] (92.5µM); 99.1% in assay [1] (925µM).
Take `O=C1CCCC(CCNNC(=O)c2ccc[n+](CC(=O)Nc3ccccc3)c2)C1.[Br-]` (stereo not drawn) [Compound 35, 1-(2-phenylamino-2-oxoethyl)-3-({2-(1-oxo-3-cyclohexyl)-ethyl} -hydrazinocarbonyl}-pyridinium bromide]: the “Relative Free Radical Scavenging Activity(%) on ABTS” value is given as 50.5% in assay [1] (11.5µM); 63.4% in assay [1] (23.0µM); 80.9% in assay [1] (46.0µM); 90.6% in assay [1] (92.5µM); 100% in assay [1] (925µM).
Regarding `Cc1ccc(C(=O)NNC(=O)c2ccc[n+](CC(=O)c3cccs3)c2)c[n+]1CC(=O)c1cccs1` [Compound 49, 1-[1-(2-thien-2'-yl-2-oxoethyl)-6-methyl-3-carbonylpyridinium]-2-[1-(2-Thien-2' -yl-2-oxoethyl)-3-carbonylpyridinium] hydrazine dichloride], the “% Breakage” value at AGE-BSA (2.5 mM test compound) stood at 85.67%. At AGE-BSA (setting [2]), the “AGE breaking activity compared to PTB” value is recorded as “superior” and the “potency (AGE breaking activity compared to PTB)” value is on record as “significantly much higher”.
Take `NC(=O)c1cc(C(=O)NNC(=O)c2ccc[n+](CC(=O)c3cccs3)c2)c[n+](CC(=O)c2cccs2)c1` [Compound 60, 1-[1-(2-thien-2'-yl-2-oxoethyl)-5-aminocarbonyl-3-carbonylpyridinium]-2-[1-(2-Thien-2'-yl-2-oxoethyl)-3-carbonylpyridinium] hydrazine dichloride]: the “% Breakage” value on AGE-BSA (1 mM test compound) is listed as 95.36%.
`O=C(C[n+]1cccc(C(=O)NCCOC(=O)c2ccccc2)c1)Nc1ccccc1.[Cl-]` [Compound 23, 1-(2-phenylamino-2-oxoethyl)-3-((benzoyloxy)ethylaminocarbonyl) pyridinium chloride]: the “% Breakage” value at AGE-BSA (10 mM test compound) is recorded as 37%; on AGE-BSA (25 mM test compound), 90%. In addition, on AGE-BSA (setting [2]), the “AGE breaking activity compared to PTB” value is recorded as “superior”.
Consider `O=C(NCCOC(=O)c1ccccc1)c1ccc[n+](CC(=O)c2cccs2)c1.[Br-]` [Compound 36, 1-(2-thien-2'-yl-2-oxoethyl)-3-[2-(benzoyloxy)ethylaminocarbonyl]-pyridinium bromide], for which the “Relative Free Radical Scavenging Activity(%) on ABTS” value is 27.6% in assay [1] (11.5µM); 59.2% in assay [1] (23.0µM); 74.2% in assay [1] (46.0µM); 83.9% in assay [1] (92.5µM); 100% in assay [1] (925µM).
`O=C(NNC(=O)c1cccnc1Cl)c1ccc[n+](CC(=O)c2cccs2)c1` [Compound 42, 1-(2-thien-2'yl-2-oxoethyl)-3-(2-(2-chloro-3-pyridoyl)hydrazinocarbonyl) -pyridinium chloride]: on AGE-BSA (10 mM test compound), the “% Breakage” value was 12.51%.
On to `CCOC(=O)C1CCCN1C(=O)C[n+]1cccc(C(=O)NNS(C)(=O)=O)c1.[Cl-]` (stereo not drawn) [Compound 52, 1-(2-(2-ethoxycarbonylpyrrolidin-1-yl)-2-oxoethyl)-3-(methanesulfonyl hydrazinocarbonyl) pyridinium chloride], for which, on AGE-BSA (10 mM test compound), the “% Breakage” value amounted to 25.34%.
As for `O=C(C[n+]1cccc(C(=O)NCCO)c1)Nc1ccccc1.[Cl-]` [Compound 95, 1-(2- Phenylamino - 2-oxoethyl)-3-((2-hydroxyethyl)aminocarbonyl) - pyridinium chloride], at AGE-BSA (20 mM test compound), the “% Breakage” value stood at 48%.
Turning to `O=C(C[n+]1cccc(C(=O)NNS(=O)(=O)Cc2ccccc2)c1)c1ccccc1.[Br-]` [Compound 31, 1-(2-phenyl-2-oxoethyl)-3-((phenylmethyl)sulfonyl hydrazinocarbonyl) pyridinium bromide], the “Relative Free Radical Scavenging Activity(%) on ABTS” value in assay [1] (11.5µM) is 41.6%; in assay [1] (23.0µM), 57.7%; in assay [1] (46.0µM) it was 66.9%; in assay [1] (92.5µM), 99.2%; in assay [1] (925µM), 100%.
Take `CCOC(=O)C1CCCN1C(=O)C[n+]1cccc(C(=O)NNC(=O)c2ccc[n+](CC(=O)N3CCCC3C(=O)OCC)c2)c1` (stereo not drawn) [Compound 59, N, N'-bis [3-carbonyl-1-(2-(2-ethoxycarbonyl pyrrolidin-1-yl)-2-oxoethyl)pyridinium] hydrazine dichloride]: on AGE-BSA (10 mM test compound), the “% Breakage” value is 20.31%.
As to `CCCCNC(=O)c1ccc[n+](CC(=O)c2ccc(Cl)cc2Cl)c1.[Br-]` [Compound 97, 1-(2 - (2, 4 - Dichlorophenyl) - 2-oxoethyl) - 3-(n-butylamino-carbonyl) pyridinium bromide], the “Relative Free Radical Scavenging Activity(%) on ABTS” value in assay [1] (11.5µM) is reported as 16.5%; in assay [1] (23.0µM), 27%; in assay [1] (46.0µM), 37.8%; in assay [1] (92.5µM) it was 44.5%; in assay [1] (925µM), 97.8%.
As for `O=C=Nc1ccc[n+](CC(=O)c2ccc(Cl)cc2Cl)c1.[Br-]` [Compound 82, 3-Carbonylamino-1-(2-(2,4-dichlorophenyl)-2-oxoethyl)-pyridinium bromide], the “Relative Free Radical Scavenging Activity(%) on ABTS” value in assay [1] (11.5µM) was 26.0%; in assay [1] (23.0µM), 44.3%; in assay [1] (46.0µM), 62.7%; in assay [1] (92.5µM), 75.5%; in assay [1] (925µM) it was 100%.
For `Cc1ccc(S(=O)(=O)NNC(=O)c2ccc[n+](CC(=O)Nc3ccccc3)c2)cc1.[Cl-]` [Compound 27, 1-(2-phenylamino-2-oxoethyl)-3-((4-methylphenyl)sulfonyl hydrazinocarbonyl) pyridinium chloride], the “Relative Free Radical Scavenging Activity(%) on ABTS” value in assay [1] (11.5µM) came out at 43.9%; in assay [1] (23.0µM), 55.5%; in assay [1] (46.0µM) it was 75.3%; in assay [1] (92.5µM), 99.6%; in assay [1] (925µM) it was 100%.
For the compound `O=C(CCC1CCCCC1)NNC(=O)c1ccc[n+](CC(=O)c2cccs2)c1.[Br-]` [Compound 34, 1-(2-thien-2'-yl-2-oxoethyl)-3-((2-(1-oxo-3-cyclohexyl)-ethyl)-hydrazinocarbonyl)-pyridinium bromide], the “Relative Free Radical Scavenging Activity(%) on ABTS” value in assay [1] (11.5µM) was 50.3%; in assay [1] (23.0µM) it was 53.8%; in assay [1] (46.0µM), 65.4%; in assay [1] (92.5µM) it was 80.4%; in assay [1] (925µM), 100%.
Consider `O=C(NCCOC(=O)c1ccccc1)c1ccc[n+](CC(=O)c2ccc(Cl)cc2Cl)c1.[Br-]` [Compound 8, 1-(2-(2',4'-dichlorophenyl) -2-oxoethyl) -3-(2-(benzoyloxy)ethylamino-carbonyl) pyridinium bromide], for which the “Relative Free Radical Scavenging Activity(%) on ABTS” value in assay [1] (11.5µM) amounted to 40.8%; in assay [1] (23.0µM), 53.7%; in assay [1] (46.0µM), 72.6%; in assay [1] (92.5µM), 81.2%; in assay [1] (925µM), 100%.
As to `O=C(NCCOC(=O)c1ccccc1)c1cc[n+](CC(=O)c2cccs2)cc1.[Br-]` [Compound 18, 1-(2-thien-2'-yl-2-oxoethyl)-4-(2-(benzoyloxy)ethylaminocarbonyl) pyridinium bromide], the “Relative Free Radical Scavenging Activity(%) on ABTS” value in assay [1] (11.5µM) worked out at 41.8%; in assay [1] (23.0µM) it was 59.5%; in assay [1] (46.0µM) it was 75.2%; in assay [1] (92.5µM) it was 91.0%; in assay [1] (925µM) it was 100%.

The values above are taken from patent EP1304101A1, “Composition and method for use of pyridinium derivatives in cosmetic and therapeutic applications” (Torrent Pharmaceuticals Ltd, priority 2001, dated 2003).
